Laboratory results taken from patent US20180289708A1 (priority 2015, published 2018).
Like-named read-outs stand apart in the source and are kept apart here.

What was measured:
[1] = tested on: subjects with treatment-refractory insomnia; assay: Dipyridamole in combination with melatonin for insomnia; assay type: in vivo, human
Procedure: The melatonin dose ranged between 0.25 mg and 10 mg per pill.

[2] = tested on: subjects with erectile dysfunction; assay: Erectile dysfunction treatment with low dose oral dipyridamole; assay type: in vivo, human
From the text: Some subjects had either failed or could not tolerate conventional treatments.

[3] = tested on: subject with androgenetic alopecia; assay: Treatment of androgenetic alopecia; assay type: in vivo, human; details: person, 14 months in total
Procedure: A person was treated with varying doses (2 and 4 mg) taken in the morning or evening, for periods of 2 weeks for each dose and continued with the optimal dose for 14 months in total.

[4] = tested on: subject with cancer-related bone pain; assay: Treatment of cancer-related bone pain; assay type: in vivo, human; details: person, 2 mg in the early evening
Procedure: A person was treated with 2 mg taken in the early evening hours. The subject reported resolution of bone pain related to metastatic prostate cancer to the cervical spine within 4 days. The subject was previously dependent on the daily use of opiate pain medications for the past 6 months.

[5] = tested on: subjects with CLL; assay: Treatment of chronic lymphocytic leukemia; assay type: in vivo, human; details: Subject 1 (person eleven), 2 mg, one month; from 25,000 (rising by 10%/month)
[6] = tested on: subjects with frequent viral infections (with upper respiratory symptoms); assay: Prevention and treatment of viral disease; assay type: in vivo, human
Procedure: Subject 1 (person eight), Subject 2 (person two), Subject 3, and Subject 4 were treated with varying doses (2, 5 and 10 mg) taken at any time during the day, for periods of 2 weeks for each dose, and thereafter continuously for up to 2 years.

[7] = tested on: subjects with xerostomia; assay: Xerostomia treatment; assay type: in vivo, human; details: Subject 1 (person twelve), 2 mg
Procedure: Subject 1 (person twelve) and Subject 2 (person three) were treated with varying doses (1, 2, 3, 4, 5 and 10 mg) taken in the morning or evening, for periods of 2 weeks for each dose then continued on optimal dose for 15 months in total.

[8] = Solubility of dipyridamole in propylene glycol / water; assay type: physicochemical
From the text: (§1) Solubility of a compound is known to increase absorption and efficacy. In other exemplary embodiments of the invention, liquid formulations are provided in gel-caps.

[9] = tested on: human subjects with intractable insomnia; assay: Insomnia treatment with low dose oral dipyridamole; assay type: in vivo
[10] = tested on: subject with prostate cancer; assay: Prostate cancer treatment; assay type: in vivo, human; details: person four, daily dose of 2 mg, 3 month period; from 19.1
Procedure: person four was treated with 2 mg taken in the afternoon or evening and followed for 3 months.

[11] = Storage stability of dipyridamole dissolved in propylene glycol; assay type: physicochemical; details: 1 year of storage at room temperature
From the text: as §1

[12] = cited from earlier work
[13] = tested on: subjects with chronic rheumatic pain; assay: Treatment of chronic rheumatic or fibromyalgia pain; assay type: in vivo, human
Procedure: Subject 1 was treated with 2 mg taken once daily with the first daily dose of oxycodone. Subject 2 (person twelve) was treated with 2 mg or 5 mg taken once daily, in conjunction with oxycodone. Subject 3 (person five) was treated with 2 mg, 5 mg or 10 mg taken once daily with PERCOCET.

[14] = tested on: subject with recurrent, non-streptococcal, non-specific sore throat; assay: Treatment of non-specific recurrent sore throat; assay type: in vivo, human; details: person, 29 kg, 1 mg/day before sleep, followed 11 months
Procedure: A person was treated with 1 mg taken before sleep and followed for 11 months in total. […] One mg dose was given based on a weight of 29 kg.

[15] = tested on: subjects with keratoconjunctivitis sicca; assay: Keratoconjunctivitis sicca treatment with low dose oral dipyridamole; assay type: in vivo, human; details: Subject 1 (person thirteen), 2 mg
Procedure: Each of the three subjects was unresponsive to cyclosporine eye drops or to lubricating drops which are the conventional treatments.
Subject 1 (person thirteen), Subject 2 (person twelve) and Subject 3 (person twelve) were treated with varying doses (2, 5 and 10 mg) taken before sleep or in the afternoon/evening hours, for initial periods of up to 2 weeks for each dose to establish optimal dosing, and followed for up to 12 months in total.

[16] = IV or oral 20-50 mg, followed up to 60 hours

With `COc1ccc2[nH]cc(CCNC(C)=O)c2c1` [melatonin] the “prior response of insomnia to melatonin alone” value ([1]; six subjects with treatment-refractory insomnia) was “unresponsive”.
For `OCCN(CCO)c1nc(N2CCCCC2)c2nc(N(CCO)CCO)nc(N3CCCCC3)c2n1` [dipyridamole], the “optimal dose for complete restoration of erectile function” value ([2]; Subject 1, daily at night) was 2 mg, the “time to restoration of erectile function” value ([2]; Subject 3 (person seven), 2 mg) was ≤ 10 days and the “effect on erectile function at 10 mg daily” value ([2]; Subject 3 (person seven), 10 mg daily) was “the beneficial effect was lost”. The “time to resolution of erectile dysfunction” value ([2]; Subject 4, 2 mg) was ≤ 5 days, the “time to resolution of erectile dysfunction” value ([2]; Subject 5, 2 mg) was ≤ 2 weeks and the “effect of 10 mg compared with 5 mg” value ([2]; Subject 5, 10 mg) was “did not produce the same benefit as 5 mg”. The “effect when taken with food” value ([2]; Subject 5, taken with food) was 2 mg was not that effective but 5 mg was, the “optimal dose for expansion of hairline, thicker hair, decreased hair loss and increased growth of chest and abdominal hair” value [3] was 4 mg and the “time to resolution of bone pain related to metastatic prostate cancer to the cervical spine” value [4] was ≤ 4 days. The “white blood cell count after treatment” value [5] was 18,000, the “incidence of viral infections under treatment” value ([6]; Subject 3, 2 mg once daily, previously 5-6 times yearly) was 1-2 times yearly and the “time to resolution of infection symptoms” value ([6]; Subject 3, 2 mg twice daily, previously 7-10 days) was 1 to 2 days. The “effect of 10 mg dose on viral infection” value ([6]; Subject 3, 10 mg, one occasion) was “failed to deliver the same benefit as the 2 mg dose”, the “optimal dose for reducing incidence of viral infections” value ([6]; Subject 3, once daily) was 2 mg and the recurrence of infections ([6]; Subject 4, 2 mg daily for 10 months, previously every 3-4 months) was “without any recurrence of infections”. The “time to complete relief of symptoms of severe viral infection” value ([6]; Subject 4, 2 mg twice daily, upper respiratory symptoms plus viral conjunctivitis) was 1 to 2 days, the “duration of occasionally recurring symptoms” value [7] was 2 to 3 h and the “reduction in severity of occasionally recurring symptoms” value ([7]; recurrence once every few weeks) was 70%. The “prior response of insomnia to low dose dipyridamole alone” value ([1]; six subjects, 1 or 2 mg daily) was “somewhat responsive”, the “solubility in propylene glycol” value ([8]; propylene glycol) was ≥ 10 mg per ml and the “solubility in propylene glycol” value ([8]; pure propylene glycol, dissolved at 5, 10 and 20 mg/mL) was “surprisingly soluble in propylene glycol”. The “solubility in water” value ([8]; water) was “difficult to dissolve in water”, the “effect on insomnia at 10 mg or more (conclusion of example)” value ([9]; 10 mg or more, 4 subjects) was “little or no effect” and the “benefit on insomnia at 10 mg” value ([9]; Subject 1, 10 mg) was “negligible benefit compared to lower doses”. For the same molecule, the “optimal dose for ensuring an excellent night's sleep” value ([9]; Subject 1, oral, before sleep) was 2 mg, the “duration of undisturbed sleep” value ([9]; Subject 2 (person nine), 2 mg) was 6-8 hours per night and the “optimal dose for ensuring an excellent, undisturbed sleep” value ([9]; Subject 2 (person nine), oral, before sleep) was 2 mg. For the same molecule, the “PSA (Prostate Specific Antigen) after treatment” value [10] was 14, the potency after storage [11] was “maintained its potency” and the “peak plasma concentration at steady state” value ([12]; 75 mg q.i.d.) was 1.54 µg/mL. The “trough plasma concentration at steady state” value ([12]; 75 mg q.i.d.) was 0.269 µg/mL, the “geometric mean peak plasma concentration at steady state” value ([12]; 75 mg t.d.s.) was 1.86 µg/mL and the “geometric mean trough plasma concentration at steady state” value ([12]; 75 mg t.d.s.) was 0.13 µg/mL. For the same molecule, the “peak plasma concentration at steady state” value ([12]; 100 mg q.i.d.) was 2.36 µg/mL, the “trough plasma concentration at steady state” value ([12]; 100 mg q.i.d.) was 0.432 µg/mL and the “half-life, first phase of tri-exponential plasma decline” value ([12]; IV only, 20-50 mg, followed up to 60 hours) was 5 min. For the same molecule, the “half-life, second phase of tri-exponential plasma decline” value [12, 16] was 53 min, the “half-life, third phase of tri-exponential plasma decline” value [12, 16] was 600 to 720 min and the “time to peak plasma levels” value ([12]; humans, following oral administration) was 1 to 3 h. The distribution half-life ([12]; humans, intravenous (IV) administration) was “about 25 minutes”, the distribution half-life ([12]; humans, oral administration) was “about 3 hours” and the “dose range in which dose linearity was demonstrated” value ([12]; single dose administration) was 25 to 150 mg. The “outcome on pain related to chronic fibromyalgia” value ([13]; Subject 1, 2 mg once daily added to oxycodone) was “complete relief of pain”, the “time to complete weaning off oxycodone while maintaining pain relief” value ([13]; Subject 2 (person twelve), 2 mg) was ≤ 3 months and the “pain relief at 10 mg” value ([13]; Subject 2 (person twelve), 10 mg instead of 2 mg) was “negligible pain relief”. The “duration of low dose dipyridamole use after which Percocet was weaned off” value ([13]; Subject 3 (person five), 2 mg) was 2 months, the “outcome on recurrent sore throat” value [14] was “complete resolution of recurrent sore throat” and the “outcome on dry eye symptoms” value [15] was “complete relief of dry eye symptoms”.
